Assays:
Experiment in all cases: relative viability (nuclei count vs DMSO), 5 days (fraction); higher = more cells survive
Bexarotene + Crizotinib = compound: C=C(c1ccc(C(=O)O)cc1)c1cc2c(cc1C)C(C)(C)CCC2(C)C [Bexarotene] + C[C@@H](Oc1cc(-c2cnn(C3CCNCC3)c2)cnc1N)c1c(Cl)ccc(F)c1Cl [Crizotinib] (partner 1 µM)
Summary of the method: (§1)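 One day after seeding in 1536-well plates, lung cancer cell lines were dosed by pin tool. Dosing was either single-drug or a fixed anchor-drug dose plus five library-drug doses (not always all listed) in √10 steps. After 5 days, nuclei were stained in one fix-and-stain step and counted on 4× images, and relative viability is the nuclei count of treated wells over that of vehicle wells, given as the median of duplicate plates.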

Bexarotene + Linsitinib = compound: C=C(c1ccc(C(=O)O)cc1)c1cc2c(cc1C)C(C)(C)CCC2(C)C [Bexarotene] + C[C@]1(O)C[C@@H](c2nc(-c3ccc4ccc(-c5ccccc5)nc4c3)c3c(N)nccn32)C1 [Linsitinib] (partner 1 µM)
Summary of the method: as §1

Bexarotene + OSI-027 = compound: C=C(c1ccc(C(=O)O)cc1)c1cc2c(cc1C)C(C)(C)CCC2(C)C [Bexarotene] + COc1cccc2cc(-c3nc([C@H]4CC[C@H](C(=O)O)CC4)n4ncnc(N)c34)[nH]c12 [OSI-027] (partner 0.5 µM)
Summary of the method: as §1

Bexarotene + Tozasertib = compound: C=C(c1ccc(C(=O)O)cc1)c1cc2c(cc1C)C(C)(C)CCC2(C)C [Bexarotene] + Cc1cc(Nc2cc(N3CCN(C)CC3)nc(Sc3ccc(NC(=O)C4CC4)cc3)n2)n[nH]1 [Tozasertib] (partner 0.1 µM)
Summary of the method: as §1

Cell Line	relative viability (Bexarotene + Crizotinib; first compound 0.08 µM)	relative viability (Bexarotene + Crizotinib; first compound 0.253 µM)	relative viability (Bexarotene + Crizotinib; first compound 0.8 µM)	relative viability (Bexarotene + Crizotinib; first compound 2.53 µM)	relative viability (Bexarotene + Crizotinib; first compound 8 µM)	relative viability (Bexarotene + Linsitinib; first compound 0.08 µM)	relative viability (Bexarotene + Linsitinib; first compound 0.253 µM)	relative viability (Bexarotene + Linsitinib; first compound 0.8 µM)	relative viability (Bexarotene + Linsitinib; first compound 2.53 µM)	relative viability (Bexarotene + Linsitinib; first compound 8 µM)	relative viability (Bexarotene + OSI-027; first compound 0.08 µM)	relative viability (Bexarotene + OSI-027; first compound 0.253 µM)	relative viability (Bexarotene + OSI-027; first compound 0.8 µM)	relative viability (Bexarotene + OSI-027; first compound 2.53 µM)	relative viability (Bexarotene + OSI-027; first compound 8 µM)	relative viability (Bexarotene + Tozasertib; first compound 0.08 µM)	relative viability (Bexarotene + Tozasertib; first compound 0.253 µM)	relative viability (Bexarotene + Tozasertib; first compound 0.8 µM)	relative viability (Bexarotene + Tozasertib; first compound 2.53 µM)	relative viability (Bexarotene + Tozasertib; first compound 8 µM)
NCI-H838	0.929	0.884	0.891	0.843	0.866	1.13	1.11	1.03	1.17	1.06	0.443	0.391	0.465	0.47	0.554	0.269	0.301	0.267	0.278	0.271
SW 1573	0.764	0.82	0.688	0.684	0.552	0.777	0.608	0.681	0.754	0.536	0.696	0.58	0.564	0.469	0.471	0.219	0.171	0.251	0.162	0.224
PC-14	0.912	1.04	1.04	0.946	0.841	0.99	1.06	0.935	1	0.934	0.88	0.938	0.743	0.836	0.647	0.626	0.778	0.649	0.576	0.66
LK-2	0.309	0.213	0.206	0.221	0.247	0.513	0.713	0.692	0.705	0.773	0.262	0.207	0.237	0.202	0.255	0.175	0.162	0.185		0.165
COR-L23	0.747	0.633	0.605	0.498	0.558	0.936	0.984	0.641	0.737	0.762	0.807	0.883	0.579	0.679	0.715	0.242	0.238	0.238	0.204	0.219
NCI-H1944	1.3	1.17	1.18	1.26	1.02	1.5	1.36	1.4	1.41	1.19	0.616	0.495	0.48	0.476	0.451	0.323	0.29	0.307	0.299	0.257
HCC-78	0.317	0.308	0.375	0.305	0.33	0.524	0.461	0.44	0.374	0.392	0.389	0.325	0.331	0.34	0.399	0.401	0.483	0.414	0.435	0.413
NCI-H2405	0.945	0.853	0.665	0.806	0.839	1.1	0.946	0.695	0.973	0.912	0.675	0.674	0.512	0.708	0.65	0.786	0.752	0.54	0.759	0.715
SK-LU-1	0.926	1.06		0.896	0.717	1.22	1.12		0.93	1.23	0.41	0.395		0.352	0.351	0.284	0.346		0.358	0.321
EMC-BAC-2	0.742	0.806	0.633	0.706	0.667	0.873	0.813	0.75	0.804	0.811	0.416	0.42	0.385	0.367	0.419	0.311	0.315	0.274	0.277	0.283
NCI-H596	1.05	1.01	0.871	0.973	1.05	1.12	0.966	0.838	0.981	1.06	0.859	0.69	0.704	0.708	0.634	0.998	0.897	0.788	0.934	0.837
LCLC-97TM1	0.478	0.343	0.576	0.409	0.472	0.185	0.193	0.185	0.207	0.224	0.427	0.54	0.598	0.561	0.515	0.251	0.192	0.206	0.189	0.221
H3255	0.882	0.92	0.958	0.989	0.959	0.964	0.995	0.985	0.991	0.934	0.714	0.538	0.598	0.585	0.6	0.696	0.612	0.578	0.731	0.618
LXF-289	0.901	0.994	1	0.979	0.973	1.06	1.11	1.04	1.11	1.01	0.912	0.925	0.757	0.572	0.731	0.166	0.196	0.213	0.137	0.141
UMC-11	0.546	0.684	0.537	0.572	0.587	1.08	1.01	1.04	0.978	0.998	0.468	0.515	0.419	0.436	0.432	0.224	0.202	0.202	0.21	0.221
LC-2-ad	0.443	0.46	0.44	0.504	0.412	0.88	0.94	0.742	0.786	0.881	0.894	0.944	0.779	0.8	0.881	0.438	0.503	0.408	0.41	0.434

Cell Line	relative viability (Bexarotene + Crizotinib; first compound 0.08 µM)	relative viability (Bexarotene + Crizotinib; first compound 0.253 µM)	relative viability (Bexarotene + Crizotinib; first compound 0.8 µM)	relative viability (Bexarotene + Crizotinib; first compound 2.53 µM)	relative viability (Bexarotene + Crizotinib; first compound 8 µM)	relative viability (Bexarotene + Linsitinib; first compound 0.08 µM)	relative viability (Bexarotene + Linsitinib; first compound 0.253 µM)	relative viability (Bexarotene + Linsitinib; first compound 0.8 µM)	relative viability (Bexarotene + Linsitinib; first compound 2.53 µM)	relative viability (Bexarotene + Linsitinib; first compound 8 µM)	relative viability (Bexarotene + OSI-027; first compound 0.08 µM)	relative viability (Bexarotene + OSI-027; first compound 0.253 µM)	relative viability (Bexarotene + OSI-027; first compound 0.8 µM)	relative viability (Bexarotene + OSI-027; first compound 2.53 µM)	relative viability (Bexarotene + OSI-027; first compound 8 µM)	relative viability (Bexarotene + Tozasertib; first compound 0.08 µM)	relative viability (Bexarotene + Tozasertib; first compound 0.253 µM)	relative viability (Bexarotene + Tozasertib; first compound 0.8 µM)	relative viability (Bexarotene + Tozasertib; first compound 2.53 µM)	relative viability (Bexarotene + Tozasertib; first compound 8 µM)
SK-MES-1	0.995	1.06	1.01	1.04	0.925	1.15	1.18	0.983	1.05	0.97	0.638	0.708	0.563	0.603	0.525	0.907	0.95	0.784	0.832	0.573
A-427	0.855	0.86	0.761	0.798	0.848	1.03	0.833	1.04	1.05	0.993	0.448	0.462	0.455	0.449	0.415	0.203	0.202	0.193	0.202	0.183
NCI-H322M	0.829	1.06	0.87	0.93	1.04	1.08	0.947	0.846	0.92	0.891	0.698	0.351	0.637	0.585	0.623	0.508	0.505	0.488	0.475	0.445
HCC-366	0.526	0.62	0.35	0.574	0.586	1.1	0.781	0.774	0.715	0.635	1.2	0.968	0.974	0.888	0.913	0.169	0.118	0.119	0.0858	0.113
NCI-H1975	1.01	1.02	1.05	1.08	1.11	1.06	1.12	1.08	1.22	1.1	0.9	0.811	0.802	0.806	0.722	0.809	0.875	0.846	0.73	0.879
NCI-H1437	0.92	0.959	0.918	0.922	0.909	1.01	1.09	0.93	1	0.898	0.985	0.819	1.01	0.89	0.982	0.382	0.395	0.396	0.421	0.382
NCI-H2009	1.16	0.882	1.08	1.08	1.06	1.33	1.36	1.13	1.18	1.13	0.729	0.705	0.584	0.547	0.598	0.753	0.897	0.814	0.815	0.778
NCI-H1651	0.936	0.89	0.952	0.968	0.893	1.12	0.934	1.02	1.08	0.984	0.843	0.717	0.71	0.702	0.744	0.929	0.64	0.741	0.594	0.791
LCLC-103H	1.15	1.21	1.03	0.999	1.12	1.24	1.15	1	1.06	1.14	0.522	0.434	0.354	0.461	0.448	0.531	0.452	0.428	0.48	0.43
NCI-H1666	1.04	0.897	0.769	0.869	0.952	0.889	0.783	0.844	0.931	0.661	0.774	0.759	0.566	0.747	0.593	0.658	0.611	0.52	0.558	0.668
NCI-H1734	0.724	0.77	0.65	0.667	0.646	0.906	0.857	0.81	0.794	0.806	0.616	0.64	0.591	0.493	0.543	0.281	0.244	0.26	0.285	0.257
EPLC-272H	0.877	0.971	0.854	0.853	0.772	1.31	1.07	0.846	1.25	1.25	0.292	0.277	0.26	0.283	0.272	0.278	0.262	0.307	0.286	0.341
NCI-H2023	0.609	0.591	0.715	0.624	0.494	0.785	0.911	0.735	0.683	0.625	0.384	0.391	0.439	0.311	0.378	0.395	0.385	0.417	0.328	0.283
BEN	0.786	0.737	0.768	0.708	0.662	1.04	0.883	0.847	0.76	0.742	0.294	0.309	0.292	0.266	0.254	0.462	0.475	0.499	0.444	0.493
COR-L 105	0.863	0.951	0.88	0.857	0.699	0.942	1.29	1.19	1.25	0.747	0.765	0.677	0.818	0.8	0.613	0.395	0.328	0.324	0.442	0.388
ABC-1	1.02	0.893	0.853	1.3	0.829	0.74	0.77	0.741	0.683	0.654	0.466	0.582	0.565	0.362	0.449	0.19	0.175	0.21	0.197	0.196
